Entries after “also recorded” stand apart in the source; their conditions may differ.
How the values were obtained:
CLN3^Δex7/8 microglia [1] = experiment: Intracellular cAMP in primary microglia; type: cell-based, mouse; details: rolipram 10 μM in FIG. 23, 24 hours post-treatment
Procedure: FIG. 23. CLN3^Δex7/8 microglia display reduced intracellular cAMP constitutively, which is enhanced by the PDE-4 inhibitors. Primary microglia were isolated from the brains of CLN3 WT or CLN3 mutant mice, whereupon cells were pre-treated with the phosphodiesterase-4 inhibitor rolipram (Rol; 10 μM) for 1 hour followed by a combination of molecules known to be elevated in the JNCL brain (20 μM ceramide+neuron lysates) for 24 hours. Intracellular cAMP levels were determined at 24 hours post-treatment (*, p<0.05).

CLN3^Δex7/8 microglia [2] = experiment: IL-1β and TNF-α production by primary microglia (ELISA); type: cell-based, mouse; details: 1 hour pre-treatment, then 20 μM ceramide+neuron lysates for 24 hours, CLN3 mutant microglia
Procedure: (§1) FIG. 21. PDE-4 inhibitors attenuate IL-1β and TNF-α production in CLN3^Δex7/8 microglia. Primary microglia were isolated from the brains of CLN3 WT or CLN3 mutant mice, whereupon cells were pre-treated with various concentrations of the phosphodiesterase-4 inhibitor propentofylline (PPF) for 1 hour followed by a combination of molecules known to be elevated in the JNCL brain (20 μM ceramide+neuron lysates) for 24 hours. Conditioned medium was collected at 24 hours post-treatment and IL-1β and TNF-α expression was determined by ELISA. **, p<0.01 for WT versus CLN3 mutant microglia; #, p<0.05; ##, p<0.01; ###, p<0.001 for CLN3 mutant microglia treated with PPF versus vehicle control.
as §1, with “22.” for “21.”, “rolipram (Rol)” for “propentofylline (PPF)”, “p<0.05;” for “p<0.05; ##, p<0.01;”, “Rol” for “PPF”
as §1, with “24.” for “21.”, “attenuate” for “attenuate IL-1β and”, “roflumilast (Rof)” for “propentofylline (PPF)”, “and” for “and IL-1β and”, “microglia.” for “microglia; #, p<0.05; ##, p<0.01; ###, p<0.001 for CLN3 mutant microglia treated with PPF versus vehicle control.”
In these experiments, primary microglia are isolated from the brains of CLN3^Δex7/8 and WT mice^8,25-27. Microglia are exposed to previously optimized concentrations of glutamate (50 μM), ATP (5 mM), ceramide (20-100 μM), neuronal lysate (1:2 or 1:5 dilution), or LPS+ATP as a positive control (100 ng/ml and 5 mM, respectively) for 24 hours, whereupon interleukin-1β (IL-1β) and tumor necrosis factor-α (TNF-α) expression are quantitated by ELISA. These cytokines were selected for analysis because they have been directly implicated in contributing to microglia-induced neuronal cell death^14,28 and also because they intersect with oxidative pathways described herein. […] In addition, CLN3 loss is examined to determine if the loss augments caspase-1 activity, a key inflammasome component that senses oxidative stress and lysosomal damage, resulting in IL-1β cleavage and secretion by microglia^8. Here, CLN3^Δex7/8 and WT microglia are exposed to the same stimuli described above, followed by incubation with the FLICA reagent (Immunochemistry Technologies LLC), a caspase-1 substrate that emits fluorescence when cleaved by the active enzyme^29. […] Indeed, studies support this expectation because caspase-1 activity was elevated in CLN3^Δex7/8 microglia compared to WT cells (FIG. 3).

astrocytes = details: cited from earlier work

Question: Which “Intracellular cAMP levels” value (CLN3^Δex7/8 microglia [1]) does the source give for `CCCn1cnc2c1c(=O)n(CCCCC(C)=O)c(=O)n2C` [propentofylline] here?
Answer: increased

Question: What about the IL-1β production (CLN3^Δex7/8 microglia [2]) of the same compound?
Answer: attenuate

Question: What about the TNF-α production (CLN3^Δex7/8 microglia [2]) of the same compound?
Answer: attenuate

Question: And the IL-1β production (CLN3^Δex7/8 microglia [2]; listed as PPF)?
Answer: significantly reduced IL-1β release

Question: And the “glutamate transporter expression in astrocytes” value (astrocytes)?
Answer: increase glutamate transporter expression in astrocytes

Question: For `COc1ccc(C2CNC(=O)C2)cc1OC1CCCC1` (stereo not shown) [rolipram], which “Intracellular cAMP levels” value (CLN3^Δex7/8 microglia [1]) is on record?
Answer: enhanced; also recorded: increased

Question: And the IL-1β production (CLN3^Δex7/8 microglia [2])?
Answer: attenuate; also recorded: significantly reduced IL-1β release

Question: And the TNF-α production (CLN3^Δex7/8 microglia [2])?
Answer: attenuate

Question: What does the source list for `O=C(Nc1c(Cl)cncc1Cl)c1ccc(OC(F)F)c(OCC2CC2)c1` [roflumilast]?
Answer: IL-1β production (CLN3^Δex7/8 microglia [2]): inhibit; TNF-α production (CLN3^Δex7/8 microglia [2]): attenuate

— patent publication US9457030B2, “Compositions and methods for the treatment of juvenile neuronal ceroid lipofuscinosis and related disorders” (BOARD OF REGENTS OF THE UNIVERSITY OF NEBRASKA, priority 2012, dated 2016)
